The record followed here is patent publication US8318731B2, “Pyrrolopyrimidines” (Janssen Pharmaceutica NV, priority 2007, dated 2012).

One data set concerns PC3. Briefly: Cellular proliferation assay (Alamar blue), PC3. The format is cell-based. The settings on record: Homo sapiens, PC-3, PC-3 cells; 10% FCS; 72 h with compound; Alamar blue 24 h; read-out: pIC50 PC-3 (converted). The essentials:
(§1)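 Cells seeded 24 h, then exposed to compounds for 72 h in 10% FCS at 37° C, 5% CO2. Viability by Alamar blue (resazurin 9 μg/ml) fluorescence at 544/590 nm after 4 h (HCT-116), 6 h (U87-MG) or 24 h (A2780, PC3) dye incubation; effect expressed relative to control cells.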
In general terms: Alamar Blue is a resazurin reagent that responds to reducing activity.

The next data set addresses T1, PLK4 (h) (Homo sapiens, UniProt O00444).
T1 sequence (O00444 1-970): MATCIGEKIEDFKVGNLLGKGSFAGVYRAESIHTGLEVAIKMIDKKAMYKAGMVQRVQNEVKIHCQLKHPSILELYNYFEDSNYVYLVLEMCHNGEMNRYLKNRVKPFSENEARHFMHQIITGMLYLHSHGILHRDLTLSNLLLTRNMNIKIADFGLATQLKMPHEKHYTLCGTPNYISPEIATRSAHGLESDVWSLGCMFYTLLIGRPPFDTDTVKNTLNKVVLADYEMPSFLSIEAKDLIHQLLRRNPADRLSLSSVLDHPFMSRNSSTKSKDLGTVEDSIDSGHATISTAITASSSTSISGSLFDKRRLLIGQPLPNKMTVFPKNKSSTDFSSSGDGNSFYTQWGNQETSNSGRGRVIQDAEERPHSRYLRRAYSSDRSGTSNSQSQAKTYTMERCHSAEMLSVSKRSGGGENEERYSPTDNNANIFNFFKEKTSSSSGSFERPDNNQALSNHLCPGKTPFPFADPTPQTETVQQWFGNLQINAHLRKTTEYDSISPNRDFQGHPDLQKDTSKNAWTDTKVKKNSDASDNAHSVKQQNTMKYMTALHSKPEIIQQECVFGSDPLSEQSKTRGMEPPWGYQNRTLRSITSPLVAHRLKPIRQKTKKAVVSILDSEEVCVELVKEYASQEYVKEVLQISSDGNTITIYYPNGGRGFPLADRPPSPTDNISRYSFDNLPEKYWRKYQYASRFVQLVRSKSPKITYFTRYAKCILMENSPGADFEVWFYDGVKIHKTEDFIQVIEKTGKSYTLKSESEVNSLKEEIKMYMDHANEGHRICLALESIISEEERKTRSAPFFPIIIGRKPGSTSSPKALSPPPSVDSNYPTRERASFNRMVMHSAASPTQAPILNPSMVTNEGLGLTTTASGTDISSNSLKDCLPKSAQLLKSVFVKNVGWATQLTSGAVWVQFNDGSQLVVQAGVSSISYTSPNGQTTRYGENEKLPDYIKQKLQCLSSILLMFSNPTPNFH
Briefly: PLK-4 human kinase scintillation proximity assay (SPA). The format is biochemical. The settings on record: 1 μM ATP, 60 minutes at r.t., read-out: PLK4 pIC50 (converted). An outline of the steps: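 Human PLK4 (19 μg/ml) reacted with 10 μM biotinylated peptide, 1 μM ATP plus 2 nM [γ-33P]ATP in HEPES pH 8.0 with MgCl2, NaCl, NaF and DTT for 60 min at r.t. After an EDTA stop, phosphorylated substrate was captured on streptavidin PVT SPA beads and scintillation imaged.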

The test system of another data set is HCT-116. As to the kind of experiment: Cellular proliferation assay (Alamar blue), HCT-116. The note with it: Homo sapiens; HCT-116 cells; 10% FCS; 72 h with compound; Alamar blue 4 h; read-out: pIC50 HCT-116 (converted). The class given is cell-based. An outline of the steps: as §1
The next data set deals with MDA-MB-231. Briefly: Cellular proliferation assay (Alamar blue), MDA-MB-231. The settings on record: Homo sapiens, MDA-MB-231, MDA-MB-231 cells; 10% FCS; 72 h with compound; Alamar blue 24 h; read-out: pIC50 MDA/MB231 (converted). The format is cell-based. The essentials: (§2)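 Viable cell number is determined by Alamar blue conversion after cells are treated with compound for 72 hours, following 24 hours of growth without compound in 10% FCS. The effect is calculated against control cells.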

The subject of a further data set is A2780. As to the kind of experiment: Cellular proliferation assay (Alamar blue), A2780. The note with it: Homo sapiens, A2780, A2780 cells; 10% FCS; 72 h with compound; Alamar blue 24 h; read-out: pIC50 A2780 (converted). The class given is cell-based. An outline of the steps:
as §1

The next data set deals with H1299. Briefly: Cellular proliferation assay (Alamar blue), H1299. The settings on record: Homo sapiens, NCI-H1299, H1299 cells; 10% FCS; 72 h with compound; Alamar blue 4 h; read-out: pIC50 H1299 (converted). The class given is cell-based. The essentials: as §2
In the next data set the test system is U87-MG. Briefly: Cellular proliferation assay (Alamar blue), U87-MG. The class given is cell-based. The settings on record: Homo sapiens, U-87 MG; U87-MG cells; 10% FCS; 72 h with compound; Alamar blue 6 h; read-out: pIC50 U87MG (converted). An outline of the steps: as §1

Molecules are shown by their SMILES.

Usually melting point stands for the temperature of the solid-liquid transition. `COc1ccc2cc1OCCCC(=O)N(C)CC1CN(Cc3c[nH]c4ncnc(c34)N2)C1` [Compound 73]: the melting point came out at 265.3 °C. In addition, the IC50 in the data set with PC3 was over 10000 nM. Also, on PLK4 (h), the IC50 is 200 nM. The IC50 with HCT-116 was over 10000 nM. Besides, the IC50 in the data set on MDA-MB-231 is over 10000 nM. In addition, in the data set on A2780, the IC50 was over 10000 nM. In addition, the IC50 in the data set on H1299 was over 10000 nM.

Regarding `CN1CCCN(C)C(=O)COc2cc(ccc2OC2CCOCC2)Nc2ncnc3[nH]cc(c23)C1` [Compound 74], the melting point is 270.9 °C. For the same compound, the IC50 on PLK4 (h) is 200 nM.

On to `CN1CCCN(C)C(=O)COc2cc(ccc2OCCN2CCCCC2)Nc2ncnc3[nH]cc(c23)C1` [Compound 136], for which the IC50 was 2510 nM in the data set on PC3; 251 nM at PLK4 (h); 2510 nM in the data set with HCT-116; 3160 nM in the data set with MDA-MB-231; 1000 nM in the data set on A2780; 5010 nM with H1299. Besides, the IC50 in the data set with U87-MG is 1580 nM.

As for `CN1CCCN(C)C(=O)COc2cc(ccc2OCCCN2CCOCC2)Nc2ncnc3[nH]cc(c23)C1` [Compound 137], the IC50 with PC3 is 3160 nM; on PLK4 (h), 398 nM; with HCT-116 it was 1260 nM; with MDA-MB-231 it was 3160 nM; in the data set with A2780, 794 nM; with H1299, 3980 nM. For the same compound, the IC50 in the data set with U87-MG was 1580 nM.

For `COCCOc1ccc2cc1OCC(=O)N(C)CCCNCc1c[nH]c3ncnc(c13)N2` [Compound 138], the IC50 in the data set with PC3 is over 10000 nM; on PLK4 (h), 25.1 nM; with HCT-116, 1000 nM; in the data set with MDA-MB-231 it was over 10000 nM; with A2780, 631 nM; in the data set with H1299, 5010 nM. Further, in the data set with U87-MG, the IC50 is over 10000 nM.

As for `CN1CCCN(C)C(=O)COc2cc(ccc2Br)Nc2ncnc3[nH]cc(c23)C1` [Compound 139], the IC50 with PC3 was 1000 nM; at PLK4 (h) it was 63.1 nM; in the data set with HCT-116, 501 nM; in the data set with MDA-MB-231, 1580 nM; with A2780, 631 nM; with H1299, 794 nM. In addition, in the data set with U87-MG, the IC50 was 1000 nM.

In the case of `COCCN(CCOc1ccc2cc1OCC(=O)N(C)CCCN(C)Cc1c[nH]c3ncnc(c13)N2)C(C)C` [Compound 140], the IC50 with PC3 was 1580 nM; on PLK4 (h) it was 158 nM; in the data set on HCT-116, 1000 nM; with MDA-MB-231, 1580 nM; with A2780, 1000 nM; in the data set with H1299, 3160 nM. For the same compound, the IC50 in the data set on U87-MG was 1000 nM.

Take `COCCN(CCOc1ccc2cc1OCC(=O)N(C)CCCN(C)Cc1c[nH]c3ncnc(c13)N2)Cc1ccccc1` [Compound 141]: the IC50 with PC3 was 3160 nM; at PLK4 (h) it was 39.8 nM; in the data set on HCT-116, 398 nM; in the data set with MDA-MB-231, 3980 nM; with A2780 it was 200 nM; in the data set on H1299, 1260 nM. In the data set with U87-MG, the IC50 is 2510 nM.

With `CN1CCCN(C)C(=O)COc2cc(ccc2OCCCNc2ccc(Cl)cc2)Nc2ncnc3[nH]cc(c23)C1` [Compound 142], the IC50 is 10000 nM in the data set with PC3; 79.4 nM at PLK4 (h); 631 nM in the data set with HCT-116; over 10000 nM in the data set on MDA-MB-231; 398 nM in the data set on A2780; 2000 nM in the data set on H1299. Besides, in the data set on U87-MG, the IC50 was 3160 nM.

Regarding `CN1CCCN(C)C(=O)COc2cc(ccc2OCCSc2nccn2C)Nc2ncnc3[nH]cc(c23)C1` [Compound 143], the IC50 is 5010 nM with PC3; 63.1 nM on PLK4 (h); 1580 nM in the data set on HCT-116; 5010 nM in the data set with MDA-MB-231; 1260 nM with A2780; 6310 nM with H1299. Besides, in the data set on U87-MG, the IC50 is 3160 nM.

With `COc1cc(NC(=O)COc2ccc3cc2OCC(=O)N(C)CCCN(C)Cc2cn(C)c4ncnc(c24)N3)cc(OC)c1OC` [Compound 145], the IC50 was over 10000 nM in the data set on PC3; 5010 nM on PLK4 (h); over 10000 nM in the data set on HCT-116; over 10000 nM in the data set with MDA-MB-231; over 10000 nM with A2780; over 10000 nM with H1299. For the same compound, the IC50 with U87-MG is over 10000 nM.

With `CN1CCCN(C)C(=O)COc2cc(ccc2Cl)Nc2ncnc3c2c(cn3C)C1` [Compound 146], the IC50 in the data set on PC3 was over 10000 nM; at PLK4 (h) it was 631 nM; in the data set with HCT-116 it was over 10000 nM; with MDA-MB-231, over 10000 nM; in the data set with A2780, over 10000 nM; in the data set on H1299, over 10000 nM. Besides, the IC50 in the data set with U87-MG was over 10000 nM.

On to `CCOCCOc1ccc2cc1OCC(=O)N(C)CCCN(C)Cc1c[nH]c3nc(C)nc(c13)N2` [Compound 147], for which the melting point is 251 °C. Besides, the IC50 in the data set on PC3 was over 10000 nM. The IC50 with HCT-116 was over 10000 nM. Moreover, the IC50 in the data set with MDA-MB-231 was over 10000 nM. The IC50 with A2780 is 2510 nM. Further, the IC50 with H1299 is over 10000 nM. Besides, the IC50 in the data set with U87-MG is over 10000 nM.

`CN1CCCN(C)C(=O)COc2cc(ccc2OCC2CCN(Cc3ccccc3)CC2)Nc2ncnc3[nH]cc(c23)C1` [Compound 149] showed a melting point of 241 °C. Moreover, the IC50 in the data set on PC3 was 1000 nM. Moreover, the IC50 with HCT-116 is 398 nM. Also, the IC50 with MDA-MB-231 is 1000 nM. For the same compound, in the data set with A2780, the IC50 is 316 nM. Moreover, in the data set with H1299, the IC50 was at least 10000 nM. In addition, the IC50 in the data set on U87-MG was 501 nM.

`CN1CCCN(C)C(=O)COc2cc(ccc2OCCSc2ccc(Cl)cc2)Nc2ncnc3[nH]cc(c23)C1` [Compound 150]: the melting point is 252.6 °C. Besides, the IC50 with PC3 is 5010 nM. For the same compound, the IC50 in the data set with HCT-116 is 63.1 nM. Besides, in the data set on MDA-MB-231, the IC50 was 2510 nM. The IC50 with A2780 is 63.1 nM. Besides, the IC50 with H1299 is at least 10000 nM.

With `COc1ccc(OCCOc2ccc3cc2OCC(=O)N(C)CCCN(C)Cc2c[nH]c4ncnc(c24)N3)cc1` [Compound 155], the melting point is 250.4 °C. The IC50 in the data set with PC3 was 2510 nM. In addition, the IC50 in the data set on HCT-116 was 63.1 nM. Moreover, the IC50 in the data set with MDA-MB-231 was 2510 nM. Also, the IC50 in the data set with A2780 was 31.6 nM. In addition, the IC50 in the data set on H1299 is 126 nM. The IC50 in the data set on U87-MG is 251 nM.

`CN1CCCN(C)C(=O)COc2cc(ccc2OCCNc2nccs2)Nc2ncnc3[nH]cc(c23)C1` [Compound 156]: the melting point was found to be 238.4 °C. In addition, the IC50 with PC3 was 3160 nM. Besides, the IC50 in the data set on HCT-116 is 631 nM. In the data set on MDA-MB-231, the IC50 is 3160 nM. In addition, the IC50 in the data set on A2780 is 501 nM. In addition, the IC50 in the data set with H1299 is 2000 nM. In the data set on U87-MG, the IC50 was 1260 nM.

With `COCCOc1c(OC)cc2cc1OCC(=O)N(C)CCCN(C)Cc1c[nH]c3ncnc(c13)N2` [Compound 161], the melting point amounted to 201.4 °C.
